Source: patent publication US7718666B2, “Pyrido [2,1-a] isoquinoline derivatives” (Hoffmann-La Roche Inc., priority 2003, dated 2010)

Molecular target: human DPP-IV (Homo sapiens, UniProt P27487)
Assay: DPP-IV activity assay (fluorogenic / colorimetric), IC50 determination
Description: Activity of DPP-IV inhibitors are tested with natural human DPP-IV derived from a human plasma pool or with recombinant human DPP-IV. Human citrate plasma from different donors is pooled, filtered through a 0.2 micron membrane under sterile conditions and aliquots of 1 ml are shock frozen and stored at −120° C. until used. In the colorimetric DPP-IV assay 5 to 10 μl human plasma and in the fluorometric assay 1.0 μl of human plasma in a total assay volume of 100 μl is used as an enzyme source. […] Human DPP-IV is expressed and purified from the culture medium using conventional column chromatography including size exclusion and anion and cation chromatography. […] In the calorimetric DPP-IV assay 20 ng rec.-h DPP-IV and in the fluorometric assay 2 ng rec-h DPP-IV in a total assay volume of 100 μl is used as an enzyme source.
Initial rate constants are calculated by best fit linear regression.
The absorption of pNA liberated from the calorimetric substrate is detected in a Packard SpectraCount at 405 nm continuosly every 2 minutes for 30 to 120 minutes. Initial rate constants are calculated by best fit linear regression.
DPP-IV activity assays are performed in 96 well plates at 37° C. in a total assay volume of 100 μl. […]
Kinetic parameters of the enzyme reaction are calculated at least 5 different substrate concentrations and at least 5 different test compound concentrations.

Chain of human DPP-IV (P27487 31-766): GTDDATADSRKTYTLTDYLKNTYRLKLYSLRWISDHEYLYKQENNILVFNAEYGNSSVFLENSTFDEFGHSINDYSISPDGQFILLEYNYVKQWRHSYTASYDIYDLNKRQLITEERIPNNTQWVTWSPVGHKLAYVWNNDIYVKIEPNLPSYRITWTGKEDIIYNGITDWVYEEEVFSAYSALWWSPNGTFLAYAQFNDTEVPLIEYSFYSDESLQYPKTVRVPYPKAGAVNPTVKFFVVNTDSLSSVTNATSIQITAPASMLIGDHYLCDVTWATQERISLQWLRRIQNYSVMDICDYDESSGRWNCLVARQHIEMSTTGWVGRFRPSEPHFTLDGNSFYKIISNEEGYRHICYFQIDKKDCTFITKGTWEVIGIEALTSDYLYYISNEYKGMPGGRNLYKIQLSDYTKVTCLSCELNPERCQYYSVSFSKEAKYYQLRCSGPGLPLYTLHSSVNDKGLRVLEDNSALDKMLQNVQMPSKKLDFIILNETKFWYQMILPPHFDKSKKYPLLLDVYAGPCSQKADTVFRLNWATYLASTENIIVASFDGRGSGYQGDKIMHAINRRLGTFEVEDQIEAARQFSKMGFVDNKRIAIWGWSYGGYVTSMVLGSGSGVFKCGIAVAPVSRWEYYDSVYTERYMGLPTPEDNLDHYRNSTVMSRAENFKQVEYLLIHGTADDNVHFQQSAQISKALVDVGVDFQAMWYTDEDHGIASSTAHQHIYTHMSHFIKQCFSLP

IC50 | SMILES
5.4 nM | COc1cc2c(cc1OC)[C@@H]1C[C@H](N)[C@@H](n3ccc(C)c3)CN1CC2 (racemic) [Example 33, rac-9,10-Dimethoxy-3β-(3-methyl-pyrrol-1-yl)-1,3,4,6,7,11bβ-hexahydro-2H-pyrido[2,1-a]isoquinolin-2α-ylamine]
11.5 nM | COc1cc2c(cc1OC)[C@@H]1C[C@H](N)[C@@H](c3cc(C)ccn3)CN1CC2 [Example 9, 9,10-Dimethoxy-3(S)-(4-methyl-pyridin-2-yl)-1,3,4,6,7,11b(S)-hexahydro-2H-pyrido[2,1a]isoquinolin-2(S)-ylamine]
